Reference: ChEMBL document CHEMBL1148538, “Scaffold oriented synthesis. Part 1: Design, preparation, and biological evaluation of thienopyrazoles as kinase inhibitors” (Bioorg Med Chem Lett, 2006)

Key:
[1] = biological target: Vascular endothelial growth factor receptor 2 (Homo sapiens, UniProt P35968); assay: Inhibitory activity against KDR
[2] = biological target: Serine/threonine-protein kinase PLK1 (Homo sapiens, UniProt P53350); assay: Inhibitory activity against Plk1
[3] = biological target: Serine/threonine-protein kinase PAK 4 (Homo sapiens, UniProt O96013); assay: Inhibitory activity against Pak4
[4] = biological target: Casein kinase II (Homo sapiens, UniProt P19784+P67870+P68400); assay: Inhibitory activity against CK2; type: protein-complex assay
[5] = biological target: RAC-alpha serine/threonine-protein kinase (Homo sapiens, UniProt P31749); assay: Inhibitory activity against Akt1
[6] = biological target: Cyclin-dependent kinase 2/cyclin A (Homo sapiens, UniProt P24941); assay: Inhibitory activity against CDK2/Cyclin A; type: protein-complex assay
[7] = biological target: Mitogen-activated protein kinase 14 (Homo sapiens, UniProt Q16539); assay: Inhibitory activity against p38alpha
[8] = biological target: MAP kinase-activated protein kinase 2 (Homo sapiens, UniProt P49137); assay: Inhibitory activity against MK2
[9] = biological target: Mitogen-activated protein kinase kinase kinase 8 (Homo sapiens, UniProt P41279); assay: Inhibitory activity against COT
Sequence of Mitogen-activated protein kinase kinase kinase 8 (P41279 whole entry): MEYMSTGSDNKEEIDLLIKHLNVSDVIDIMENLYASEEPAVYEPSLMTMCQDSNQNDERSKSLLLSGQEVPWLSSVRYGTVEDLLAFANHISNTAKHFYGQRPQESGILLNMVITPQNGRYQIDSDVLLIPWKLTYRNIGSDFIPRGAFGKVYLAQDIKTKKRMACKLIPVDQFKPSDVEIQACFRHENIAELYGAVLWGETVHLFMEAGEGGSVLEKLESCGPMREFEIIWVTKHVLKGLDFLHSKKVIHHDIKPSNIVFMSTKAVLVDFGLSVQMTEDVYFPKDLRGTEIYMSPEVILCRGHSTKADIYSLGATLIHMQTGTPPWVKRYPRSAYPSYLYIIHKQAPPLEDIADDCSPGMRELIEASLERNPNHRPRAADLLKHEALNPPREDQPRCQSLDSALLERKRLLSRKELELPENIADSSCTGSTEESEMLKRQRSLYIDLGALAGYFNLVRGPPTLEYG

Sequence of Serine/threonine-protein kinase PLK1 (P53350 whole entry): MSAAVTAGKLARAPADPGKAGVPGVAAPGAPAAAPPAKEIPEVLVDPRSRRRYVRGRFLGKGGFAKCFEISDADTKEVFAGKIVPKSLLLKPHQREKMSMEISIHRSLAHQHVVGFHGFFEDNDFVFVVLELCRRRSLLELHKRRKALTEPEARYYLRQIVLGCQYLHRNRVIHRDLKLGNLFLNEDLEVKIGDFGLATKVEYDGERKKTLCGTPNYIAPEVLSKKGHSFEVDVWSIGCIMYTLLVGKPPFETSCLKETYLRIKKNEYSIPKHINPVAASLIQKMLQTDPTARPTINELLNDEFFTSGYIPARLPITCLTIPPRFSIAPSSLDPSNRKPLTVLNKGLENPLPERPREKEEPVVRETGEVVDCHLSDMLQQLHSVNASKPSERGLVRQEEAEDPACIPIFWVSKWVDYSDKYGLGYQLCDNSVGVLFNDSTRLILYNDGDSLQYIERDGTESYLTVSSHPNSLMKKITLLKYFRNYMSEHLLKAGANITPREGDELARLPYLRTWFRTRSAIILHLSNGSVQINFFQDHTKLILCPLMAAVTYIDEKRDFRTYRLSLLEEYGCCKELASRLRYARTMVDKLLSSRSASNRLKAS
Sequence of Casein kinase II (P67870 whole entry): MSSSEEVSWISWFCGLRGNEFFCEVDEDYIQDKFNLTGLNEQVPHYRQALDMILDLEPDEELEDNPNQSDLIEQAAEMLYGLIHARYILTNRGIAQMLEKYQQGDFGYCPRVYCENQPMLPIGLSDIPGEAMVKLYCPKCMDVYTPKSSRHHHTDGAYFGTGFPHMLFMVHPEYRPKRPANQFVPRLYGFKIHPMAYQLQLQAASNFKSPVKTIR
Sequence of Casein kinase II (P68400 whole entry): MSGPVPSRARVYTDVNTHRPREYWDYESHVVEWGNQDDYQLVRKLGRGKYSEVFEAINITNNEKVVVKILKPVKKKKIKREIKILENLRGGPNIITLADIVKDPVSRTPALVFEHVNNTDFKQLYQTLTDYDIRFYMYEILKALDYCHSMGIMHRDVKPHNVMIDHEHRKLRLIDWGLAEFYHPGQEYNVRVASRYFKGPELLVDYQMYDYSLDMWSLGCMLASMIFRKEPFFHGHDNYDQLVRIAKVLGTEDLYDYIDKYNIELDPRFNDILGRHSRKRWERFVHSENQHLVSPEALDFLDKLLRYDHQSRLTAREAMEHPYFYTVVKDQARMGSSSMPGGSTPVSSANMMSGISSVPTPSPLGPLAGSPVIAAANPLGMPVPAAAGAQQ
Sequence of Casein kinase II (P19784 whole entry): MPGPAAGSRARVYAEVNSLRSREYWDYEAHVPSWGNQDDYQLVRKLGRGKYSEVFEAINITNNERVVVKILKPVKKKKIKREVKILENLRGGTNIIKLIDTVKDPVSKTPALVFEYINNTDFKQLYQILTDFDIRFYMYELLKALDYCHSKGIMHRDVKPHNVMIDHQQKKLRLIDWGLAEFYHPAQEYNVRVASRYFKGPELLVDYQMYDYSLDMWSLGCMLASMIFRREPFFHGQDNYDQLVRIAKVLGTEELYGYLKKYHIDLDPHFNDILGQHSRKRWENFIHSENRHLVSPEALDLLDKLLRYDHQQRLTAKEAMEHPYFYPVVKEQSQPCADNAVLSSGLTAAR
Sequence of RAC-alpha serine/threonine-protein kinase (P31749 whole entry): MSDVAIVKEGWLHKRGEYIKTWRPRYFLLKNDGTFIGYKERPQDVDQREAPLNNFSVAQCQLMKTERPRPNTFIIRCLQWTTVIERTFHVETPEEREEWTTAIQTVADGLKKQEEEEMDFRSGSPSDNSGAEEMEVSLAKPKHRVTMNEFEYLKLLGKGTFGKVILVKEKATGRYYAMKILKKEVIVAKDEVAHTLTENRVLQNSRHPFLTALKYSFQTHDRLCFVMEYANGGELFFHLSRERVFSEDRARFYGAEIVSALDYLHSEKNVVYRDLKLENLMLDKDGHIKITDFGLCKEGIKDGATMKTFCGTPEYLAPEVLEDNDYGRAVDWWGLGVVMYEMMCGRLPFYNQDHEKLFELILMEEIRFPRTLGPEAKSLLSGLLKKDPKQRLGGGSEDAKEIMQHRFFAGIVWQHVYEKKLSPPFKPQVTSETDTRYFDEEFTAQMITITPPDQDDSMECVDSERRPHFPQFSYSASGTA
Sequence of Mitogen-activated protein kinase 14 (Q16539 whole entry): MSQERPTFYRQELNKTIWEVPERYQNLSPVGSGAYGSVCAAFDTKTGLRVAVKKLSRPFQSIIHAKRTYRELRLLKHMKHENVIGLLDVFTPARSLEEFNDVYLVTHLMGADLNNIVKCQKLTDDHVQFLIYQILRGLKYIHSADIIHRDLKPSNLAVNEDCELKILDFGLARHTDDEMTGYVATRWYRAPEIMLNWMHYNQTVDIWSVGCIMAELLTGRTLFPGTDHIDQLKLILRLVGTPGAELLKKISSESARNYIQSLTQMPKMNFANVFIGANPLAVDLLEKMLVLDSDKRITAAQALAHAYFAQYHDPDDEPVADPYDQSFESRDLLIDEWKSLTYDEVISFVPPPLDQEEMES
Sequence of MAP kinase-activated protein kinase 2 (P49137 whole entry): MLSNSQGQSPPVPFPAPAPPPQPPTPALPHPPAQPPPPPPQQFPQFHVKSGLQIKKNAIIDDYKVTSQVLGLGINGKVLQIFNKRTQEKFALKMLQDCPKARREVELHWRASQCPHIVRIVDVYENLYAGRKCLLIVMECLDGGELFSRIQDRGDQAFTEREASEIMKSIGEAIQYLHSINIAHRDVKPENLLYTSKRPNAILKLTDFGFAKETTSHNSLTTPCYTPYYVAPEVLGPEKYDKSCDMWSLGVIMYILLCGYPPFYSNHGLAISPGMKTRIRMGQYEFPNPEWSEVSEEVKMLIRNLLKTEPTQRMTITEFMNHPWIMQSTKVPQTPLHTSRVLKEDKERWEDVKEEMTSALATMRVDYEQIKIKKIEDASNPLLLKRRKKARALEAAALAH
Sequence of Serine/threonine-protein kinase PAK 4 (O96013 whole entry): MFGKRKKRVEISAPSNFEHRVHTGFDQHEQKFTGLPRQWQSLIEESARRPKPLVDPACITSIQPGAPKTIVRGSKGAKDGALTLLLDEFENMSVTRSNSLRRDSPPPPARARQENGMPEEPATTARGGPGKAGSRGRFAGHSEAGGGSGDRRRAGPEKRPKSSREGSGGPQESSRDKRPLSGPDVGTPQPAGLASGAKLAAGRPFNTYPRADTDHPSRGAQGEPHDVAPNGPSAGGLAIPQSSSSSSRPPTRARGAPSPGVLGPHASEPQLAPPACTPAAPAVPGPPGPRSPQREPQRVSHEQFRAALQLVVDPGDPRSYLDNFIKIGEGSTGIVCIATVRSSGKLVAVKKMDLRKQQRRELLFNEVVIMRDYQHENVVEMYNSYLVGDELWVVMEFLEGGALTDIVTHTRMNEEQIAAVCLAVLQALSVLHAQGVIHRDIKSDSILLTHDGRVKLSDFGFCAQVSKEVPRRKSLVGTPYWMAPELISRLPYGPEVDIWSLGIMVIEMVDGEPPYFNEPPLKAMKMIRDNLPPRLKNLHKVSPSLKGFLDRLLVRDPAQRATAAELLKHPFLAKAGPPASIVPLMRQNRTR

IC50 [1] [µM]	IC50 [2] [µM]	IC50 [3] [µM]	IC50 [4] [µM]	IC50 [5] [µM]	IC50 [6] [µM]	IC50 [7] [µM]	IC50 [8] [µM]	IC50 [9] [µM]	SMILES
2	17	> 20	> 20	> 20	> 20	> 20	> 20	> 20	O=C(NCCc1ccccc1)c1cc2c(-c3ccccc3)n[nH]c2s1
17	> 20	> 20	4	> 20	–	–	> 20	> 20	Cc1n[nH]c2sc(C(N)=O)cc12
0.51	> 20	> 20	> 20	> 20	> 20	> 20	16	> 20	COc1ccc(CNC(=O)c2cc3c(-c4ccccc4)n[nH]c3s2)cc1
0.35	> 20	> 20	5	> 20	> 20	> 20	> 20	> 20	CCCCN(C)C(=O)c1cc2c(-c3ccccc3)n[nH]c2s1
> 100	> 100	> 100	> 100	> 100	–	–	–	–	Cc1n[nH]c2sc(C(N)=O)c(NC(=O)c3cccc(Cl)c3)c12
> 100	> 100	> 100	> 100	> 100	–	–	–	–	Cc1[nH]nc2sc(C(N)=O)c(NC(=O)c3ccc(Cl)cc3)c12
19	> 20	> 20	9	> 20	–	–	–	–	CC(=O)Nc1c(C(N)=O)sc2n[nH]c(C)c12
0.49	12	> 20	> 20	> 20	11	> 20	> 20	> 20	O=C(NC1CCCCC1)c1cc2c(-c3ccccc3)n[nH]c2s1
11	> 100	> 100	6	> 100	–	–	–	–	Cc1n[nH]c2sc(C(N)=O)c(NC(=O)COc3ccccc3)c12
> 20	> 20	> 20	> 20	> 20	–	–	> 20	> 20	Cc1n[nH]c2sc(C(=O)NC3CCCCC3)cc12
20	> 20	13	11	9	–	–	–	–	Cc1[nH]nc2sc(C(N)=O)c(NC(=O)Nc3ccccc3)c12
> 100	> 100	> 100	> 100	> 100	–	–	–	–	COC(=O)c1cc2c(CN3CCCCC3)n[nH]c2s1
0.5	–	> 20	2	15	–	–	17	> 20	O=C(NCc1ccccc1)c1cc2c(-c3ccccc3)n[nH]c2s1
23	> 100	> 100	38	> 100	–	–	–	–	COC(=O)c1cc2c(C)n[nH]c2s1
> 20	> 20	> 20	24	> 20	–	–	> 20	> 20	CCCCN(C)C(=O)c1cc2c(C)n[nH]c2s1
> 100	21	37	5	16	–	–	–	–	COC(=O)c1cc2c(Nc3ccccc3)[nH]nc2s1
17	8	> 100	3	> 100	–	–	–	–	COC(=O)C(=O)Nc1c(C(N)=O)sc2[nH]nc(C)c12
4	> 20	> 20	> 20	> 20	> 20	> 20	> 20	> 20	CN1CCN(C(=O)c2cc3c(-c4ccccc4)n[nH]c3s2)CC1
16	> 20	> 20	21	> 20	–	–	> 20	> 20	CCCCNC(=O)c1cc2c(C)n[nH]c2s1
8	23	> 100	9	> 100	–	–	–	–	Cc1[nH]nc2sc(C(N)=O)c(NC(=O)c3ccccc3Cl)c12
12	16	> 20	19	> 20	–	–	> 20	> 20	Cc1n[nH]c2sc(C(=O)NCc3ccccc3)cc12
6	> 100	> 100	> 100	17	–	–	–	–	Cc1n[nH]c2sc(C(N)=O)c(NC(=O)c3cccs3)c12
